pIC50: −log10 of the molar value.
Biological target: T1, full length SGK1 (Homo sapiens, UniProt O00141)
T1 construct: 125 μM full length SGK1 (Life Technologies Part #PR7358A); purchased Life Technologies PR7358A
T1 sequence (O00141 1-431): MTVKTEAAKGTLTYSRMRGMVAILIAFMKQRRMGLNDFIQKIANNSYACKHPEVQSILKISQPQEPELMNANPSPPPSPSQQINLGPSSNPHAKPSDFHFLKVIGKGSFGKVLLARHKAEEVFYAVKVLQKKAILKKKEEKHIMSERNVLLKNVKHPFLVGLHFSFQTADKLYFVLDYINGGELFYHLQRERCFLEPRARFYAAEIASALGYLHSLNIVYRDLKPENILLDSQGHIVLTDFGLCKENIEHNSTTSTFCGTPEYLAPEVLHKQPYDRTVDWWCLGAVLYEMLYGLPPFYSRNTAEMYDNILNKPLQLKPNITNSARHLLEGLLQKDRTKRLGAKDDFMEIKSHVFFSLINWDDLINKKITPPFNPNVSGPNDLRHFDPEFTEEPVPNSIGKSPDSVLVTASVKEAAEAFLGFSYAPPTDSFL
Experiment: SGK1 inhibition Assay A (Caliper LabChip electrophoretic separation of fluorescent peptide substrate and phosphorylated product)
Format: biochemical
Settings: Assay A; 20 μM ATP, 40 min incubation; read-out: SGK1 IC50

Structure (SMILES)	pIC50
CC(=O)NCCOc1cc(C(F)F)sc1C(=O)N[C@@H]1CCCN(c2cc(-c3cncnc3)n3ncnc(N)c23)C1 [Example 424, (R)-3-(2-acetamidocthoxy)-N-(1-(4-amino-7-(pyrimidin-5-yl)pyrrolo[2,1-f][1,2,4]triazin-5-yl)piperidin-3-yl)-5-(difluoromethyl)thiophene-2-carboxamide]	7.31
CC(=O)NCCOc1cc(C(F)F)sc1C(=O)N[C@@H]1CCCN(c2cc(-c3ccc(C#N)nc3)n3ncnc(N)c23)C1 [Example 425, (R)-3-(2-acetamidocthoxy)-N-(1-(4-amino-7-(6-cyanopyridin-3-yl)pyrrolo[2,1-f][1,2,4]triazin-5-yl)piperidin-3-yl)-5-(difluoromethyl)thiophene-2-carboxamide]	7.85
CC(=O)NCCOc1cc(C(F)F)sc1C(=O)N[C@@H]1CCCN(c2cc(-c3cnc(C#N)c(C)c3)n3ncnc(N)c23)C1 [Example 426, (R)-3-(2-acetamidoethoxy)-N-(1-(4-amino-7-(6-cyano-5-methylpyridin-3-yl)pyrrolo[2,1-f][1,2,4]triazin-5-yl)piperidin-3-yl)-5-(difluoromethyl)thiophene-2-carboxamide]	7.52
CC(=O)NCCOc1cc(C(F)F)sc1C(=O)N[C@@H]1CCCN(c2cc(-c3ccc(=O)n(CC(F)F)c3)n3ncnc(N)c23)C1 [Example 427, (R)-3-(2-acetamidoethoxy)-N-(1-(4-amino-7-(1-(2,2-difluoroethyl)-6-oxo-1,6-dihydropyridin-3-yl)pyrrolo[2,1-f][1,2,4]triazin-5-yl)piperidin-3-yl)-5-(difluoromethyl)thiophene-2-carboxamide]	7.92
COC(=O)NCCOc1cc(C(F)F)sc1C(=O)N[C@@H]1CCCN(c2cc(C3=CCN(C(=O)OC)C3)n3ncnc(N)c23)C1 [Example 428, Methyl (R)-3-(4-amino-5-(3-(5-(difluoromethyl)-3-(2-((methoxycarbonyl)amino)ethoxy)thiophene-2-carboxamido)piperidin-1-yl)pyrrolo[2,1-f][1,2,4]triazin-7-yl)-2,5-dihydro-1H-pyrrole-1-carboxylate]	7.68
COC(=O)NCCOc1cc(C(F)F)sc1C(=O)N[C@@H]1CCCN(c2cc(-c3cncnc3)n3ncnc(N)c23)C1 [Example 429, methyl (R)-(2-((2-((1-(4-amino-7-(pyrimidin-5-yl)pyrrolo[2,1-f][1,2,4]triazin-5-yl)piperidin-3-yl)carbamoyl)-5-(difluoromethyl)thiophen-3-yl)oxy)ethyl)carbamate]	7.22
COC(=O)NCCOc1cc(C(F)F)sc1C(=O)N[C@@H]1CCCN(c2cc(-c3cnc(C#N)c(C)c3)n3ncnc(N)c23)C1 [Example 431, methyl (R)-(2-((2-((1-(4-amino-7-(6-cyano-5-methylpyridin-3-yl)pyrrolo[2,1-f] [1,2,4]triazin-5-yl)piperidin-3-yl)carbamoyl)-5-(difluoromethyl)thiophen-3-yl)oxy)ethyl)carbamate]	7.85
CC(=O)NCCOc1cc(C(F)F)sc1C(=O)N[C@@H]1CCCN(c2cc(-c3ccc(=O)n(CC(F)F)c3)n3ncnc(N)c23)C1 [Example 432, (R)-3-(2-acetamidoethoxy)-N-(1-(4-amino-7-(1-(2,2-difluoro-ethyl)-6-oxo-1,6-dihydropyri-din-3-yl)pyrrolo[2,1-f] [1,2,4]triazin-5-yl)piperidin-3-yl)-5-(difluoromethyl)thio-phene-2-carboxamide]	8.10
CC(=O)N1CC=C(c2cc(N3CCC[C@@H](NC(=O)c4sc(C(F)F)cc4OC4COC4)C3)c3c(N)ncnn23)C1 [Example 433, (R)—N-(1-(7-(1-acetyl-2,5-dihydro-1H-pyrrol-3-yl)-4-aminopyrrolo[2,1-f][1,2,4]triazin-5-yl)piperidin-3-yl)-5-(difluoromethyl)-3-(oxetan-3-yloxy)thiophene-2-carboxamide]	7.74
COC(=O)N1CC=C(c2cc(N3CCC[C@@H](NC(=O)c4sc(C(F)F)cc4OC4COC4)C3)c3c(N)ncnn23)C1 [Example 434, methyl (R)-3-(4-amino-5-(3-(5-(difluoromethyl)-3-(oxetan-3-yloxy)thiophene-2-carboxamido)piperidin-1-yl)pyrrolo[2,1-f][1,2,4]triazin-7-yl)-2,5-dihydro-1H-pyrrole-1-carboxylate]	8.00
N#Cc1ccc(-c2cc(N3CCC[C@@H](NC(=O)c4sc(C(F)F)cc4OC4COC4)C3)c3c(N)ncnn23)cn1 [Example 435, (R)-N-(1-(4-amino-7-(6-cyanopyridin-3-yl)pyrrolo[2,1-f][1,2,4]triazin-5-yl)piperidin-3-yl)-5-(difluoromethyl)-3-(oxetan-3-yloxy)thiophene-2-carboxamide]	8.15
Cc1cc(-c2cc(N3CCC[C@@H](NC(=O)c4sc(C(F)F)cc4OC4COC4)C3)c3c(N)ncnn23)cnc1C#N [Example 436, (R)-N-(1-(4-amino-7-(6-cyano-5-methylpyridin-3-yl)pyrrolo[2,1-f][1,2,4]triazin-5-yl)piperidin-3-yl)-5-(difluoromethyl)-3-(oxetan-3-yloxy)thiophene-2-carboxamide]	7.92
N#Cc1cc(-c2cc(N3CCC[C@@H](NC(=O)c4sc(C(F)F)cc4OC4COC4)C3)c3c(N)ncnn23)ccn1 [Example 437, (R)-N-(1-(4-amino-7-(2-cyanopyridin-4-yl)pyrrolo[2,1-f][1,2,4]triazin-5-yl)piperidin-3-yl)-5-(difluoromethyl)-3-(oxetan-3-yloxy)thiophene-2-carboxamide]	8.10
CC(=O)N1CC=C(c2cc(N3CCC[C@@H](NC(=O)c4sc(C(F)F)cc4OC4CCN(C)CC4)C3)c3c(N)ncnn23)C1 [Example 438, (R)—N-(1-(7-(1-acetyl-2,5-dihydro-1H-pyrrol-3-yl)-4-aminopyrrolo[2,1-f][1,2,4]triazin-5-yl)piperidin-3-yl)-5-(difluoromethyl)-3-((1-methylpiperidin-4-yl)oxy)thiophene-2-carboxamide]	8.22
Cc1cc(-c2cc(N3CCC[C@@H](NC(=O)c4sc(C(F)F)cc4OC4CCN(C)CC4)C3)c3c(N)ncnn23)cnc1C#N [Example 439, (R)-N-(1-(4-amino-7-(6-cyano-5-methylpyridin-3-yl)pyrrolo[2,1-f][1,2,4]triazin-5-yl)piperidin-3-yl)-5-(difluoromethyl)-3-((1-methylpiperidin-4-yl)oxy)thiophene-2-carboxamide]	8.70
CN1CCC(Oc2cc(C(F)F)sc2C(=O)N[C@@H]2CCCN(c3cc(-c4ccc(C#N)c(F)c4)n4ncnc(N)c34)C2)CC1 [Example 440, (R)-N-(1-(4-amino-7-(4-cyano-3-fluorophenyl)pyrrolo[2,1-f][1,2,4]triazin-5-yl)piperidin-3-yl)-5-(difluoromethyl)-3-((1-methylpiperidin-4-yl)oxy)thiophenc-2-carboxamide]	8.52
COC(=O)N1CC=C(c2cc(N3CCC[C@@H](NC(=O)c4sc(C(F)F)cc4OC4CCN(C(C)C)CC4)C3)c3c(N)ncnn23)C1 [Example 441, Methyl (R)-3-(4-amino-5-(3-(5-(difluoromethyl)-3-((1-isopropylpiperidin-4-yl)oxy)thiophene-2-carboxamido)piperidin-1-yl)pyrrolo[2,1-f][1,2,4]triazin-7-yl)-2,5-dihydro-1H-pyrrole-1-carboxylate]	8.00
CC(=O)N1CC=C(c2cc(N3CCC[C@@H](NC(=O)c4ccc(N(C)C)cc4)C3)c3c(N)ncnn23)C1 [Example 445]	8.30
CC(=O)N1CC=C(c2cc(N3CCC[C@@H](NC(=O)c4cnccn4)C3)c3c(N)ncnn23)C1 [Example 446, (R)-N-(1-(7-(1-acetyl-2,5-dihydro-1H-pyrrol-3-yl)-4-aminopyrrolo[2,1-][1,2,4]triazin-5-yl)piperidin-3-yl)pyrazine-2-carboxamide]	6.90
CC(=O)Nc1cccc(C(=O)N[C@@H]2CCCN(c3cc(C4=CCN(C(C)=O)C4)n4ncnc(N)c34)C2)c1 [Example 447, (R)-3-acetamido-N-(1-(7-(1-acetyl-2,5-dihydro-1H-pyrrol-3-yl)-4-aminopyrrolo[2,1-f][1,2,4]triazin-5-yl)piperidin-3-yl)benzamide]	7.72
CC(=O)N1CC=C(c2cc(N3CCC[C@@H](NC(=O)c4cccc(C)n4)C3)c3c(N)ncnn23)C1 [Example 448, (R)-N-(1-(7-(1-acetyl-2,5-dihydro-1H-pyrrol-3-yl)-4-aminopyrrolo[2,1-][1,2,4]triazin-5-yl)piperidin-3-yl)-6-methylpicolinamide]	8.40
CC(=O)N1CC=C(c2cc(N3CCC[C@@H](NC(=O)c4csnn4)C3)c3c(N)ncnn23)C1 [Example 449, (R)-N-(1-(7-(1-acetyl-2,5-dihydro-1H-pyrrol-3-yl)-4-aminopyrrolo[2,1-f][1,2,4]triazin-5-yl)piperidin-3-yl)-1,2,3-thiadiazole-4-]	7.47
CC(=O)N1CC=C(c2cc(N3CCC[C@@H](NC(=O)c4csc(-c5cccnc5)n4)C3)c3c(N)ncnn23)C1 [Example 450, (R)-N-(1-(7-(1-acetyl-2,5-dihydro-1H-pyrrol-3-yl)-4-aminopyrrolo[2,1-f][1,2,4]triazin-5-yl)piperidin-3-yl)-2-(pyridin-3-yl)thiazole-4-carboxamide]	7.28
CC(=O)N1CC=C(c2cc(N3CCC[C@@H](NC(=O)c4cnc(C)cn4)C3)c3c(N)ncnn23)C1 [Example 451, (R)-N-(1-(7-(1-acetyl-2,5-dihydro-1H-pyrrol-3-yl)-4-aminopyrrolo[2,1-f][1,2,4]triazin-5-yl)piperidin-3-yl)-5-methylpyrazine-2-carboxamide]	6.65

From patent US20260250290A1 (BRISTOL-MYERS SQUIBB COMPANY, priority 2023, published 2026)
